From patent US6950757B2, “Screening methods for identifying ligands” (Emerald BioStructures, Inc., priority 2001, dated 2005)

Experiments:
Assay type in all cases: binding
[1] = target: T1, topo70-DNA covalent complex (Form 7 apo-crystals) (Homo sapiens, UniProt P11387); assay: Crystal cracking of Form 7 crystals (crystal-cracking assay); details: 16° C., approximately 3 hours
T1 construct: human topoisomerase I construct of residues Lys175 to Phe765; made in house; host or cells: baculovirus-insect cell (SF9)
T1 sequence (P11387 175-765): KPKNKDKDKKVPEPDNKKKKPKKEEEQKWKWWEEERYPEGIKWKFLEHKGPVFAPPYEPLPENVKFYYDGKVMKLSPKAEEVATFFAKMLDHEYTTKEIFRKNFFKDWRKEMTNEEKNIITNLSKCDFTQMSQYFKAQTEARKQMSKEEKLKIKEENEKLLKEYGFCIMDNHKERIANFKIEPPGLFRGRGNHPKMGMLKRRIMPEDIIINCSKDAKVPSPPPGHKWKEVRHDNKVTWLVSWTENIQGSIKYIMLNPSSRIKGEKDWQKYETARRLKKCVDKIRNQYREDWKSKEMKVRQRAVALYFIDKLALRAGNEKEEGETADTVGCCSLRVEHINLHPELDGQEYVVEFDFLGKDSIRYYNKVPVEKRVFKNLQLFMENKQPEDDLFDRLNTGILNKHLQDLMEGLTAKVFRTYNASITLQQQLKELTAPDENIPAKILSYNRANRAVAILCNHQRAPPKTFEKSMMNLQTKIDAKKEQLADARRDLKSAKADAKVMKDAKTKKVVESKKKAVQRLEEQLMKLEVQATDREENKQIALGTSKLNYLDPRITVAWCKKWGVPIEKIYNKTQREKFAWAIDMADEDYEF
Source text: Cracking of the crystal after exposure to the potential ligand(s) indicates binding between at least one potential ligand and the macromolecule. This assay is referred to herein as the “crystal-cracking” assay.
The crystal cracking assay of the invention involves the development of optimized crystal growth conditions that depend on the absence of the ligand to produce a supply of macromolecule crystals, referred to herein as apo-crystals, then soaking the apo-crystals in a solution containing one or more potential ligands. If a ligand actually binds to the macromolecule, it initiates a conformational change in the crystal resulting in an observable cracking of the crystal.
Several rounds of similar optimization screening experiments eventually led to the identification of a definitive crystallization condition that produces crystals of the topo70-DNA covalent complex only in the absence of Topotecan (designate Form 7). The Form 7 crystals were grown at 16° C. under optimized conditions by vapor diffusion equilibration against a 500 microliter reservoir solution of 10% PEG 8000, 100 mM Tris-HCl pH 8.0, 100 mM Na/K phosphate pH 6.2, 100 mM KCl, and 10 mM DTT. The sitting drop crystallizations were prepared in drop chambers by mixing 2 microliters of reservoir solution with 2 microliters of 0.1 mM duplex DNA substrate in 6 mM NaCl, and 2 microliters 4 mg/ml topo70 in 10 mM Tris-HCl pH 7.5, 1 mM EDTA, and 1 mM DTT.
In order to test the effects of Topotecan and other topo I poisons on the integrity of Form 7 crystals, crystallization drops containing Form 7 crystals were subjected to the following treatments:
1. Injection of 3 microliters of a buffer solution containing 100 mM MES pH 6.3, and 100 mM Na/K phosphate pH 6.2 (buffer only control).
2. Injection of 3 microliters of 100 mM MES pH 6.3, 100 mM Na/K phosphate pH 6.2, and 0.32 mM Topotecan.
3. Injection of 3 microliters of 100 mM MES pH 6.3, 100 mM Na/K phosphate pH 6.2, 13% v/v DMSO, and 0.64 mM camptothecin.
4. […]

[2] = target: T2, topo70-DNA covalent complex (Homo sapiens, UniProt P11387); assay: Crystal growth assay (crystal growth dependence on ligand), T80P CBS-cross solutions; details: 16° C.
T2 construct: human topoisomerase I construct of residues Lys175 to Phe765; made in house; host or cells: baculovirus-insect cell (SF9)
T2 sequence (P11387 175-765): T1 sequence (P11387 175-765)
Procedure: The chemical components of each crystallization formulation were classified as being either a crystallant, buffer, or salt. The various crystallants were as follows:
CBS-cross crystallization screening formulations were prepared with all possible combinations of crystallants, buffers and salts.
In one set of crystallization experiments, the T80P crystallization screen was used in a Combinatorial Clover Plate developed by Emerald BioStructures, Inc. [Kim et al.], which allows for the rapid set up of multiple crystallizations in a common vapor diffusive environment.
The 24 reservoir chambers of the Combinatorial Clover Plate were filled with 1.0 milliliter of each of the 24 different T80P formulations. Once the T80P formulations had been individually placed into the reservoir chambers, 2 microliters of each individual crystallization screening formulation was placed into each of the four the sitting drop chambers that are connected to the common reservoir by dedicated vapor diffusion channels. This was followed by the addition of 1 microliter of duplex suicide oligonucleotide substrate (0.05 mM duplex, 6 mM NaCl) into the drop chamber.
The duplex was mixed with the crystallization screening solution by repeated pipetting. This was followed by the addition 0.1 microliter of 10 mM Topotecan to the upper two drop chambers of each crystallization clover. […]

[3] = target: T2, topo70-DNA covalent complex; assay: Crystallization trials with VII-2 solutions in the absence or presence of Topotecan; details: condition VII-2 #3; 1 microliter of 1 mM ligand in water vs water only; 16° C., several days
Procedure: The four different VII-2 formulations each contained one or more of the chemical components found in the lead crystallization conditions, plus additional components such as 10 mM DTT. The four VII-2 crystallization conditions were as follows:
A Cryschem tray was used to screen each of the four VII-2 crystallization solutions for their ability to promote crystallization of topo70-DNA complexes in the absence or presence of Topotecan, an analogue of camptothecin. The crystallization experiments were set up by first placing 500 microliters of the VII-2 screening solutions in duplicate individual reservoir chambers. Next, 3 microliters of each reservoir solution was placed into the drop chambers. The drop chamber solutions were then mixed by pipetting with 1.5 microliters of 0.05 mM suicide duplex oligonuceotide substrate in 6 mM NaCl. One microliter of 1 mM Topotecan in pure water or 1 microliter of pure water only was added to each of the duplicate drop chambers. Then 2 microliters of topo70 at 3 mg/ml in 10 mM Tris-HCl pH 7.5, 1 mM EDTA, and 1 mM DTT was added to each of the drop chambers. The crystallization tray was sealed with crystal clear sealing tape (marketed by Manco, Inc. Avon, Ohio), and incubated at 16° C.

[4] = injection of 3 microliters of 0.64 mM ligand in 100 mM MES pH 6.3, 100 mM Na/K phosphate pH 6.2, 13% v/v DMSO

SMILES: CC[C@@]1(O)C(=O)OCc2c1cc1n(c2=O)Cc2cc3cc4c(cc3nc2-1)OCO4 [10,11 MDO-camptothecin, 10,11 MDO camptothecin]
- effect on integrity of Form 7 crystals (crystal cracking) [1, 4]: had dissolved leaving only a trace pile of crystal bits

SMILES: O=C(O)CCCn1c2c(c3ccccc3c1=O)C(=O)c1ccccc1-2 [MJ-II-38]
- ligand-dependent crystal growth of ternary complex crystals ([2]; T80P #10, 0.5 microliter of 1 mM AG260 in 100% DMSO or 0.3 microliter of 1 mM MJ-II-38 in 90% v/v DMSO, several days): plate like crystals grew

SMILES: CC[C@@]1(O)C(=O)OCc2c1cc1n(c2=O)Cc2cc3c(CN(C)C)c(O)ccc3nc2-1 [Topotecan]
- ligand-dependent crystal growth (Form 9 crystals) ([2]; T80P #9 and T80P #10, 0.1 microliter of 10 mM ligand, day 28, no crystals when ligand absent): produced crystals of distinct block morphology when Topotecan was present
- growth of putative topo70-DNA covalent complex crystals (Form 7) with ligand present vs absent [3]: grow in condition VII-2 #3 only when Topotecan was absent
- effect on integrity of Form 7 crystals (crystal cracking) ([1]; injection of 3 microliters of 0.32 mM ligand in 100 mM MES pH 6.3, 100 mM Na/K phosphate pH 6.2): showed visible signs of micro cracks throughout the crystals

SMILES: CC[C@@]1(O)C(=O)OCc2c1cc1n(c2=O)Cc2cc3ccccc3nc2-1 [camptothecin]
- effect on integrity of Form 7 crystals (crystal cracking) [1, 4]: showed visible signs of micro cracks throughout the crystals
